Test system: S1P1 receptor
Experiment: Immunosuppressive effect: Western blot of S1P1 receptor in LLC cells
Type: cell-based, human
Details: incubation for discrete times (3 hours, 12 hours)
Protocol: To this end, LLC cells (5×10^5 per well) were seeded and cultured on 12-well plates in RPMI-1640 medium, 10% FBS, at 37° C. in a humidified atmosphere containing 5% CO2, adding to the culture the various test compounds. Incubation was conducted for discrete times, at the end of which the cells were lysed to submit the protein content to Western blot analysis with antibodies that specifically recognize the S1P1 receptor.

## CCCCCCCCc1ccc(CCC(N)(CO)CO)cc1.Cl [FTY720, 2-amino-2[2-(4-octylphenyl)ethyl]propane-1,3-diol hydrochloride]
  S1P1 receptor expression (Western blot, FIG. 1): induces a rapid decrease of S1P1 receptor
